In patent publication US20250092039A1, “GLUTARIMIDE-CONTAINING PAN-KRAS-MUTANT DEGRADER COMPOUNDS AND USES THEREOF” (Tiger Biotherapeutics Inc., priority 2022, published 2025):
Like-named read-outs stand apart in the source and are kept apart here.

Legend:
[1] = molecular target: KRAS G12V (Homo sapiens (Human), UniProt P01116, G12V); test: KRAS G12V degradation in SW620 cells (Western blot, DC50); assay type: cell-based; conditions: 24 hours
In short: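 SW620 cells (homozygous KRAS G12V) were treated with compound for 24 hours at 37° C. KRAS in lysates was measured by Western blot with fluorescent secondary antibodies and expressed relative to DMSO vehicle (100%). DC50 came from a four-parameter variable-slope dose-response fit.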

[2] = system: SW620 cells; test: 3D cell growth inhibition of SW620 cells carrying endogenous KRAS G12V mutation (CellTiter-Glo 3D, GI50); assay type: cell-based; conditions: SW620 cells, 6 days, read-out: SW620 3D cell growth GI50
In short: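 SW620 cells (endogenous KRAS G12V) grown in 3D were dosed next day with compound from DMSO stocks at various concentrations, then incubated 6 days at 37° C.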

[3] = molecular target: KRAS-G12V/RAF1 (Homo sapiens (Human), UniProt P01116, G12V); test: KRAS/RAF1 binding inhibition assay (AlphaScreen)
Chain of KRAS-G12V/RAF1 (P01116-2 other isoform, or with tags, fused parts or gaps G12V): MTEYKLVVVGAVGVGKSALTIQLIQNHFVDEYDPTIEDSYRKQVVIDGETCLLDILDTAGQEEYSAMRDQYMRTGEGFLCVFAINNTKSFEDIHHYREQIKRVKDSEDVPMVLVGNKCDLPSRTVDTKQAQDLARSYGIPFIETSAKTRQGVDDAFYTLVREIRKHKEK
In short: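 Binding of GppNHp-loaded KRAS G12V to the RAF1 RBD was measured by AlphaScreen with test compound present in 2% DMSO (final), 60 min incubation at 4° C. Signals were converted to % inhibition versus DMSO, and IC50 was obtained by variable-slope nonlinear regression.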

Chain of KRAS G12V (P01116-2 other isoform, or with tags, fused parts or gaps G12V): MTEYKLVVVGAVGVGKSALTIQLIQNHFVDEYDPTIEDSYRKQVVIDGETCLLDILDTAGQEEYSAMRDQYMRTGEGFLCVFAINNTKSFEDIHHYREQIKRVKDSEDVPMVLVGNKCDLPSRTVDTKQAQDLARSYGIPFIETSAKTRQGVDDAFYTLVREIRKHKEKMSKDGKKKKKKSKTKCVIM

SMILES | DC50 [1] [nM] | GI50 ([2]; Homo sapiens, SW-620, 144 h) [nM] | IC50 [3] [nM] | GI50 [2] [nM]
CCc1c(F)ccc2cc(O)cc(-c3ncc4c(N5CCC[C@@](C)(O)C5)nc(OCC5(CN6CC(N7CC(N8CCN(c9ccc%10c(c9)CN([C@H]9CCC(=O)NC9=O)C%10=O)CC8)C7)C6)CC5)nc4c3F)c12 [Compound 137, (S)-3-(5-(4-(1′-((1-(((7-(8-ethyl-7-fluoro-3-hydroxynaphthalen-1-yl)-8-fluoro-4-((R)-3-hydroxy-3-methylpiperidin-1-yl)pyrido[4,3-d]pyrimidin-2-yl)oxy)methyl)cyclopropyl)methyl)-[1,3′-biazetidin]-3-yl)piperazin-1-yl)-1-oxoisoindolin-2-yl)piperidine-2,6-dione] | 1 to 10 | < 10 | 20 to 200 | 
CCc1c(F)ccc2cc(O)cc(-c3ncc4c(N5CCC[C@@](C)(O)C5)nc(OCC5(CN6CC(N7CCC(N8CCN(c9ccc%10c(c9)CN([C@H]9CCC(=O)NC9=O)C%10=O)CC8)CC7)C6)CC5)nc4c3F)c12 [Compound 139, (S)-3-(5-(4-(1-(1-((1-(((7-(8-ethyl-7-fluoro-3-hydroxynaphthalen-1-yl)-8-fluoro-4-((R)-3-hydroxy-3-methylpiperidin-1-yl)pyrido[4,3-d]pyrimidin-2-yl)oxy)methyl)cyclopropyl)methyl)azetidin-3-yl)piperidin-4-yl)piperazin-1-yl)-1-oxoisoindolin-2-yl)piperidine-2,6-dione] | < 1 | < 10 | < 20 | 
CCc1cccc2cc(O)cc(-c3ncc4c(N5CCC[C@@](C)(O)C5)nc(OCC5(CN6CCC7(CC6)CCN(c6ccc8c(c6)CN(C6CCC(=O)NC6=O)C8=O)CC7)CC5)nc4c3F)c12 (stereo partly drawn) [Compound 140, 3-(5-(9-((1-(((7-(8-ethyl-3-hydroxynaphthalen-1-yl)-8-fluoro-4-((R)-3-hydroxy-3-methylpiperidin-1-yl)pyrido[4,3-d]pyrimidin-2-yl)oxy)methyl)cyclopropyl)methyl)-3,9-diazaspiro[5.5]undecan-3-yl)-1-oxoisoindolin-2-yl)piperidine-2,6-dione] | < 1 | < 10 | 20 to 200 | 
CCc1cccc2cc(O)cc(-c3ncc4c(N5CCC[C@@](C)(O)C5)nc(OCC5(CN6CC7(CCC(N8CCN(c9ccc%10c(c9)CN([C@H]9CCC(=O)NC9=O)C%10=O)CC8)CC7)C6)CC5)nc4c3F)c12 [Compound 141, (S)-3-(5-(4-(2-((1-(((7-(8-ethyl-3-hydroxynaphthalen-1-yl)-8-fluoro-4-((R)-3-hydroxy-3-methylpiperidin-1-yl)pyrido[4,3-d]pyrimidin-2-yl)oxy)methyl)cyclopropyl)methyl)-2-azaspiro[3.5]nonan-7-yl)piperazin-1-yl)-1-oxoisoindolin-2-yl)piperidine-2,6-dione] | > 100 | > 100 | < 20 | 
CCc1cccc2cc(O)cc(-c3ncc4c(N5CCC[C@@](C)(O)C5)nc(OCC5(CN6CC7(CCC(N8CCN(c9ccc%10c(c9)CN([C@H]9CCC(=O)NC9=O)C%10=O)CC8)CC7)C6)CC5)nc4c3F)c12 [Compound 142, (S)-3-(5-(4-(2-((1-(((7-(8-ethyl-3-hydroxynaphthalen-1-yl)-8-fluoro-4-((R)-3-hydroxy-3-methylpiperidin-1-yl)pyrido[4,3-d]pyrimidin-2-yl)oxy)methyl)cyclopropyl)methyl)-2-azaspiro[3.5]nonan-7-yl)piperazin-1-yl)-1-oxoisoindolin-2-yl)piperidine-2,6-dione] | 1 to 10 |  | 20 to 200 | > 100
CCc1c(F)ccc2cc(O)cc(-c3ncc4c(N5CCC[C@@](C)(O)C5)nc(OCC5(CN6CC(N7CC8(CCN(c9ccc%10c(c9)CN(C9CCC(=O)NC9=O)C%10=O)CC8)C7)C6)CC5)nc4c3F)c12 (stereo partly drawn) [Compound 144, 3-(5-(2-(1-((1-(((7-(8-ethyl-7-fluoro-3-hydroxynaphthalen-1-yl)-8-fluoro-4-((R)-3-hydroxy-3-methylpiperidin-1-yl)pyrido[4,3-d]pyrimidin-2-yl)oxy)methyl)cyclopropyl)methyl)azetidin-3-yl)-2,7-diazaspiro[3.5]nonan-7-yl)-1-oxoisoindolin-2-yl)piperidine-2,6-dione] | < 1 | < 10 | < 20 | 
CCc1c(F)ccc2cc(O)cc(-c3ncc4c(N5CCC[C@@](C)(O)C5)nc(OCC5(CN6CCC(N7CC(N8CCN(c9ccc%10c(c9)CN([C@H]9CCC(=O)NC9=O)C%10=O)CC8)C7)CC6)CC5)nc4c3F)c12 [Compound 146, (S)-3-(5-(4-(1-(1-((1-(((7-(8-ethyl-7-fluoro-3-hydroxynaphthalen-1-yl)-8-fluoro-4-((R)-3-hydroxy-3-methylpiperidin-1-yl)pyrido[4,3-d]pyrimidin-2-yl)oxy)methyl)cyclopropyl)methyl)piperidin-4-yl)azetidin-3-yl)piperazin-1-yl)-1-oxoisoindolin-2-yl)piperidine-2,6-dione] | < 1 | < 10 | < 20 | 
CCc1c(F)ccc2cc(O)cc(-c3ncc4c(N5CCC[C@@](C)(O)C5)nc(OCC5(CN6CC(CN7CCC(N8CCN(c9ccc%10c(c9)CN([C@H]9CCC(=O)NC9=O)C%10=O)CC8)CC7)C6)CC5)nc4c3F)c12 [Compound 149, (S)-3-(5-(4-(1-((1-((1-(((7-(8-ethyl-7-fluoro-3-hydroxynaphthalen-1-yl)-8-fluoro-4-((R)-3-hydroxy-3-methylpiperidin-1-yl)pyrido[4,3-d]pyrimidin-2-yl)oxy)methyl)cyclopropyl)methyl)azetidin-3-yl)methyl)piperidin-4-yl)piperazin-1-yl)-1-oxoisoindolin-2-yl)piperidine-2,6-dione] | > 100 | 10 to 100 | 20 to 200 | 

Continued, values first:

DC50 [1] [nM] | GI50 ([2]; Homo sapiens, SW-620, 144 h) [nM] | IC50 [3] [nM] | GI50 [2] [nM] | SMILES
< 1 | < 10 | 20 to 200 |  | CCc1cccc2cc(O)cc(-c3ncc4c(N5CCC[C@@](C)(O)C5)nc(OCC5(CN6CCC7(CC6)CC(N6CCN(c8ccc9c(c8)CN([C@H]8CCC(=O)NC8=O)C9=O)CC6)C7)CC5)nc4c3F)c12 [Compound 138, (3S)-3-[5-[4-[7-[[1-[[7-(8-ethyl-3-hydroxy-1-naphthyl)-8-fluoro-4-[(3R)-3-hydroxy-3-methyl-1-piperidyl]pyrido[4,3-d]pyrimidin-2-yl]oxymethyl]cyclopropyl]methyl]-7-azaspiro[3.5]nonan-2-yl]piperazin-1-yl]-1-oxo-isoindolin-2-yl]piperidine-2,6-dione]
< 1 | < 10 | < 20 |  | CCc1c(F)ccc2cc(O)cc(-c3ncc4c(N5CCC[C@@](C)(O)C5)nc(OCC5(CN6CCC(N7CC8(CCN(c9ccc%10c(c9)CN(C9CCC(=O)NC9=O)C%10=O)CC8)C7)CC6)CC5)nc4c3F)c12 (stereo partly drawn) [Compound 143, 3-(5-(2-(1-((1-(((7-(8-ethyl-7-fluoro-3-hydroxynaphthalen-1-yl)-8-fluoro-4-((R)-3-hydroxy-3-methylpiperidin-1-yl)pyrido[4,3-d]pyrimidin-2-yl)oxy)methyl)cyclopropyl)methyl)piperidin-4-yl)-2,7-diazaspiro[3.5]nonan-7-yl)-1-oxoisoindolin-2-yl)piperidine-2,6-dione]
1 to 10 | < 10 | < 20 |  | CCc1c(F)ccc2cc(O)cc(-c3ncc4c(N5CCC[C@@](C)(O)C5)nc(OCC5(CN6CCC(N7CCC8(CCN(c9ccc%10c(c9)CN(C9CCC(=O)NC9=O)C%10=O)CC8)CC7)CC6)CC5)nc4c3F)c12 (stereo partly drawn) [Compound 145, 3-(5-(9-(1-((1-(((7-(8-ethyl-7-fluoro-3-hydroxynaphthalen-1-yl)-8-fluoro-4-((R)-3-hydroxy-3-methylpiperidin-1-yl)pyrido[4,3-d]pyrimidin-2-yl)oxy)methyl)cyclopropyl)methyl)piperidin-4-yl)-3,9-diazaspiro[5.5]undecan-3-yl)-1-oxoisoindolin-2-yl)piperidine-2,6-dione]
< 1 | < 10 | < 20 |  | CCc1c(F)ccc2cc(O)cc(-c3ncc4c(N5CCC[C@@](C)(O)C5)nc(OCC5(CN6CCC(N7CCC(N8CCN(c9ccc%10c(c9)CN([C@H]9CCC(=O)NC9=O)C%10=O)CC8)CC7)CC6)CC5)nc4c3F)c12 [Compound 147, (S)-3-(5-(4-(1′-((1-(((7-(8-ethyl-7-fluoro-3-hydroxynaphthalen-1-yl)-8-fluoro-4-((R)-3-hydroxy-3-methylpiperidin-1-yl)pyrido[4,3-d]pyrimidin-2-yl)oxy)methyl)cyclopropyl)methyl)-[1,4′-bipiperidin]-4-yl)piperazin-1-yl)-1-oxoisoindolin-2-yl)piperidine-2,6-dione]
< 1 | < 10 | < 20 |  | CCc1c(F)ccc2cc(O)cc(-c3ncc4c(N5CCC[C@@](C)(O)C5)nc(OCC5(CN6CCC(CN7CCC(N8CCN(c9ccc%10c(c9)CN([C@H]9CCC(=O)NC9=O)C%10=O)CC8)CC7)CC6)CC5)nc4c3F)c12 [Compound 148, (S)-3-(5-(4-(1-((1-((1-(((7-(8-ethyl-7-fluoro-3-hydroxynaphthalen-1-yl)-8-fluoro-4-((R)-3-hydroxy-3-methylpiperidin-1-yl)pyrido[4,3-d]pyrimidin-2-yl)oxy)methyl)cyclopropyl)methyl)piperidin-4-yl)methyl)piperidin-4-yl)piperazin-1-yl)-1-oxoisoindolin-2-yl)piperidine-2,6-dione]
